Assay [1] concerns yeast strains expressing the human ApoE4. The assay can be described thus: Yeast ApoE4 toxicity rescue assay (OD600 growth). The settings on record: 24 h; for EC50: read-out: ApoE4 EC50; for Emax: read-out: ApoE4 Emax.
The target of another assay is T1, SCD5 (Homo sapiens, UniProt Q86SK9).
T1 construct: host or cells: S. cerevisiae ole1Δ strain (W303 pdr1Δ pdr3Δ background), plasmid pRS316 with TDH3 promoter and CYC1 terminator
T1 sequence (Q86SK9 1-330): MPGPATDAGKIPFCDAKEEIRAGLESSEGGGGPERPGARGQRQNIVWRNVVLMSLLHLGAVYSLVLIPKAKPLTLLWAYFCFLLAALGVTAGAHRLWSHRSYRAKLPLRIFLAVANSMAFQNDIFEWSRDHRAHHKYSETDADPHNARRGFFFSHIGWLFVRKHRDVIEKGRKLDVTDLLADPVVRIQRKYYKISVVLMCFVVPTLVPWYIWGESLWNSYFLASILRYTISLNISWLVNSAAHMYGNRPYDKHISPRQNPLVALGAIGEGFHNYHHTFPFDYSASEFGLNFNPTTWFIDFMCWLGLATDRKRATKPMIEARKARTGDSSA
Briefly: Growth inhibition of humanized yeast strain expressing SCD5 as sole desaturase. The class given is cell-based. The note with it: humanized yeast strain expressing SCD5. In short, it runs like this:
(§1)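 Measured by optical density at 600 nm, growth of desaturase-dependent yeast (OLE1 deleted; human SCD1, human SCD5 or yeast Ole1 supplied from plasmid) was scored after 24 h (Ole1) or 40 h (SCD1, SCD5) at 30° C. in galactose media lacking uracil with DMSO-delivered compound.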

A further assay addresses T2, SCD1 (Homo sapiens, UniProt O00767).
T2 construct: host or cells: S. cerevisiae ole1Δ strain (W303 pdr1Δ pdr3Δ background), plasmid pRS316 with TDH3 promoter and CYC1 terminator
T2 sequence (O00767 1-359): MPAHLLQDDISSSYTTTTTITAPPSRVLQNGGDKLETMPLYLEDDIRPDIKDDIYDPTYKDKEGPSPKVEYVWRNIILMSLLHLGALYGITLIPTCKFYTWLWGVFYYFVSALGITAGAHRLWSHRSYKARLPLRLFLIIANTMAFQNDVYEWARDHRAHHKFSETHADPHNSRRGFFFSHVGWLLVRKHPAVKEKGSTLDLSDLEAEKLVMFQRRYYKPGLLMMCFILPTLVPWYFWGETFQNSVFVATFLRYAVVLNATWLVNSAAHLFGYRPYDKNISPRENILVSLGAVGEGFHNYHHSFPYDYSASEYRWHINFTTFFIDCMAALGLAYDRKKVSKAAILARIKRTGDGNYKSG
The assay can be described thus: Growth inhibition of humanized yeast strain expressing SCD1 as sole desaturase. The class given is cell-based. The note with it: humanized yeast strain expressing SCD1. In a few lines:
as §1

A further assay concerns the target T3, Ole1 (Saccharomyces cerevisiae, UniProt P21147).
T3 construct: expressed in transfected cells; host or cells: S. cerevisiae ole1Δ strain (W303 pdr1Δ pdr3Δ background), plasmid pRS316 with TDH3 promoter and CYC1 terminator
T3 sequence (P21147 1-510): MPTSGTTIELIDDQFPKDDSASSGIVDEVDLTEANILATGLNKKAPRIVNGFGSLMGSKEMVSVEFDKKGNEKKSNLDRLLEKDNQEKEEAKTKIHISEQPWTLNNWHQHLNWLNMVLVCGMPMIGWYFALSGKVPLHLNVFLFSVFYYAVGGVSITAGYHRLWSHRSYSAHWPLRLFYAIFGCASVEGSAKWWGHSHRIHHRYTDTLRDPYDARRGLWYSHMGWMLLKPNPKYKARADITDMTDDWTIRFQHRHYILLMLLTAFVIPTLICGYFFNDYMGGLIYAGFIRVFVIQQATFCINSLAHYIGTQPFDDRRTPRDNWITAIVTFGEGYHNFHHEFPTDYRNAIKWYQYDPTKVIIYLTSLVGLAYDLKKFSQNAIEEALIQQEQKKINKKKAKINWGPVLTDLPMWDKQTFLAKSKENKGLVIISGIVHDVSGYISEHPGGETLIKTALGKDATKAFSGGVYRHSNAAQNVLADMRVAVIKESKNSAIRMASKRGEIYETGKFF
The assay can be described thus: Growth inhibition of yeast strain expressing Ole1 as sole desaturase. It counts as cell-based. The note with it: yeast strain expressing Ole1 as sole desaturase. In a few lines: as §1

In assay [2] the test system is yeast strains expressing the human α-synuclein. Briefly: Yeast α-synuclein toxicity rescue assay (OD600 growth). The settings on record: 40 h; for EC50: read-out: α-Syn EC50; for Emax: read-out: α-Syn Emax.
Source text: The induced expression of α-synuclein and ApoE4 confers cytotoxicity, thus enabling the identification of compounds that can restore cell viability. This instantaneous/synchronous induction of α-synuclein and ApoE4 can be achieved due to the following expression control. In glucose-containing media, gene expression from the GAL1 promoter is ‘off’ and actively repressed by additional epigenetic factors. In raffinose, expression is ‘off’, but the promoter not actively repressed. Upon transition to galactose-containing media, the promoter is instantaneously turned ‘on’ to achieve robust and synchronous induction of α-synuclein or ApoE4 expression. This highly regulated induction provides a robust window for the determination of both efficacy (amplitude of protective effect) and potency (concentration of protective effect) of cytoprotective compounds.
Re-suspended compound stocks were subsequently arrayed into 384 well compound plates using automated pipetting. All other wells not receiving stock compound were filled with 10 μL of 100% DMSO using an automated plate filler (Multidrop Combi). An 11 point, 2-fold serial dilution was then performed using the robotic platform. Compound assay plates were covered with foil and stored at −20° C. until use.
Each strain was handled according to standard protocols and cultured in media composed of CSM (complete synthetic media), YNB (yeast nitrogenous base), and a 2% (w/v) carbon source (either glucose, raffinose, or galactose).
In a standard yeast assay, a single-use aliquot of cells was thawed on ice and diluted into CSM/glucose (5 mL). Cultures were grown for 8 hours at 30° C. This pre-growth enables the yeast to exit the thaw and begin to grow without expressing aSyn or ApoE4. After 8 hours, cell density (OD600) was determined and cultures diluted to an OD600 of 0.01 in CSM/raffinose for an overnight culture phase at 30° C. During this period, the active glucose repression of the GAL1 promoter was relieved; however, expression of the α-Syn/ApoE4 genes were not yet induced. After ˜16 hours of growth, cultures attain an OD600 of 0.4-0.8 and were ready to apply to assay plates containing compound.
Compound profiling assays were executed in clear-bottom 384 well plates. First, compound plates were thawed at room temperature for 45′, centrifuged at 1,000×g for 1 minute, and the foil removed. Clear 384 well assay plates were then filled with 15 μL of CSM/galactose. […] The pin tool was washed iteratively with both 50% DMSO and 100% ethanol between each assay plate. After delivering compound to each assay plate, the overnight CSM/raffinose aSyn or ApoE4 cultures were added at a 2X cell density (0.04 for aSyn and 0.08 for ApoE4) in CSM/galactose to achieve a final assay OD600 of 0.02 and 0.04 for aSyn and ApoE, respectively. The cultures (15 μL per well) were then dispensed to the compound -containing 384 well assay plates using an automated plate filler. Plates were incubated in a humidified 30° C. incubator for 40 or 24 hours for aSyn and ApoE4, respectively. The ODsoo of each assay plate was then read with a microplate reader (e.g., Perkin Elmer Envision).
The efficacy and potency of compounds were calculated according to the following. Raw data (OD600 values) were first background corrected to account for OD600 contributed by the plate and media itself. The efficacy (percent above DMSO, herein referred to as “Emax”) was calculated according to the equation: (Experimental well−DMSO control well)/(DMSO control well)*100. […] Normalized dose-response data was fit with a logistic regression curve using Spotfire (TIBCO), or similar curve-fitting software package. EC50 values were then reported along with EMax to provide both efficacy and potency measures for each analog and enable further compound design.

Some results are limits rather than exact numbers.

By EC50 is commonly meant the concentration at which the effect is half-maximal. Usually IC50 stands for the concentration needed to halve the response being measured. Turning to `CCOc1ccc(-c2noc(C3CCN(C(=O)[C@H]4CC(=O)N(c5ccccc5)C4)CC3)n2)cc1OC` [compound 85], the EC50 in assay [1] worked out at 17 µM; in assay [2], 12.6 µM. The figures for the Emax in assay [1] and in assay [2] were 602% and 486%, respectively. The concentration for half-maximal inhibition (IC50) on SCD5, against SCD1 and at Ole1 was over 45 µM each time.

Consider `COc1ccc(-c2noc(C3CCN(C(=O)CNC(=O)c4ccc(C)c(C)c4)CC3)n2)cc1OC` [compound 15], for which the EC50 in assay [1] was 3.63 µM; in assay [2], 1.71 µM. Further, the Emax in assay [1] worked out at 866%; in assay [2] it was 628%. In addition, the IC50 at SCD5, on SCD1 and on Ole1 was over 45 µM throughout.

For the molecule `COc1ccc(-c2noc(C3CCN(C(=O)/C=C/C(=O)c4ccccc4)CC3)n2)cc1OC` [Compound 33], in assay [1], the 50% effective concentration (EC50) was found to be 0.717 µM and the Emax is 281%. Also, at SCD5, the IC50 was over 45 µM and the “SCD5 % Max Inhibition” value was found to be 24.10%. In addition, at SCD1, the 50% inhibitory concentration (IC50) was over 45 µM and the “SCD1 % Max Inhibition” value stood at 8.14%. For the same molecule, on Ole1, the IC50 was over 45 µM and the “OLE1 % Max Inhibition” value is reported as 1.55%. Besides, in assay [2], the EC50 worked out at 0.111 µM and the Emax amounted to 260%.

As to `CCOc1ccc(-c2noc(C3CCN(C(=O)NCCc4ccccc4)CC3)n2)cc1OC` [compound 83], the Emax was 567% in assay [1] and 151% in assay [2]. The half-maximal inhibitory concentration (IC50) on SCD5, at SCD1 and on Ole1 was over 45 µM each time. Besides, the 50% effective concentration (EC50) in assay [2] is 9.31 µM.

In the case of `Cc1cccc(-c2nc(C3CCN(C(=O)[C@H]4CC(=O)N(c5ccc(C)c(C)c5)C4)CC3)no2)c1` (single isomer, unassigned) [compound 73], the Emax in assay [1] amounted to 303%; in assay [2], 151%. The IC50 against SCD5 was over 45 µM; against SCD1, 33.7 µM; at Ole1 it was over 45 µM. Also, the concentration for a half-maximal effect (EC50) in assay [2] turned out to be 15.8 µM.

Regarding `COc1ccc(-c2noc(C3CCN(C(=O)[C@@H](C)NC(=O)c4ccccc4)CC3)n2)cc1OC` (single isomer, unassigned) [Compound 60], in assay [1], the half-maximal effective concentration (EC50) turned out to be 0.119 µM and the Emax is 795%. On SCD5, half-maximal inhibition (IC50) was put at 41.1 µM and the “SCD5 % Max Inhibition” value is reported as 57.19%. Besides, at SCD1, the IC50 is over 45 µM and the “SCD1 % Max Inhibition” value came to 72.03%. Besides, at Ole1, the IC50 was over 45 µM and the “OLE1 % Max Inhibition” value was found to be 2.91%. For the same molecule, in assay [2], the EC50 stood at 0.032 µM and the Emax was 605%.

For the molecule `CCN1C(=O)COc2ccc(-c3noc(C4CCN(C(=O)C5CC(=O)N(c6ccc(C)c(C)c6)C5)CC4)n3)cc21` (stereo not drawn) [compound 4], the concentration giving a half-maximal response (EC50) came out at 11.8 µM in assay [1] and 8.43 µM in assay [2]. Moreover, the values for the Emax in assay [1] and in assay [2] were 76% and 59%, respectively. Besides, the half-maximal inhibitory concentration (IC50) at SCD5, on SCD1 and against Ole1 was over 45 µM in each case.

`Cc1ccc(-c2noc(C3CCN(C(=O)[C@@H]4CC(=O)N(c5ccc(C)c(C)c5)C4)CC3)n2)cc1` [Compound 62]: in assay [1], the EC50 was determined as 21.4 µM and the Emax is 430%. Besides, at SCD5, the half-maximal inhibitory concentration (IC50) is over 45 µM and the “SCD5 % Max Inhibition” value was 5.75%. Further, on SCD1, the IC50 is over 45 µM and the “SCD1 % Max Inhibition” value was 28.73%. For the same molecule, at Ole1, the half-maximal inhibitory concentration (IC50) was over 45 µM and the “OLE1 % Max Inhibition” value is reported as 86.77%. In assay [2], the concentration giving a half-maximal response (EC50) is 21.7 µM and the Emax is 204%.

In the case of `COc1ccc(-c2noc(C3CCN(C(=O)CNC(=O)c4ccccc4)CC3)n2)cc1OC` [Compound 7], the results for the 50% effective concentration (EC50) in assay [1] and in assay [2] were 0.176 µM and 0.04 µM, respectively. Besides, the Emax in assay [1] came out at 782%; in assay [2] it was 594%. In addition, the concentration for half-maximal inhibition (IC50) is over 45 µM against SCD5, 39.2 µM on SCD1 and over 45 µM at Ole1.

With `COc1ccc(-c2noc(C3CCN(C(=O)CNC(=O)c4ccccc4Cl)CC3)n2)cc1OC` [compound 25], the EC50 came out at 1.85 µM in assay [1] and 0.751 µM in assay [2]. The Emax in assay [1] is 889%; in assay [2], 619%. The results for the concentration for half-maximal inhibition (IC50) against SCD5, at SCD1 and at Ole1 were 39.4 µM, over 45 µM and over 45 µM, respectively.

`COc1ccc(-c2noc(C3CCN(C(=O)CNC(c4ccccc4)C(F)(F)F)CC3)n2)cc1OC` (stereo not drawn) [Compound 34]: the Emax in assay [1] turned out to be 596%. Besides, on SCD5, the IC50 is over 45 µM and the “SCD5 % Max Inhibition” value is on record as 5.37%. On SCD1, the concentration for half-maximal inhibition (IC50) is over 45 µM and the “SCD1 % Max Inhibition” value amounted to 42.55%. Besides, at Ole1, the IC50 is over 45 µM and the “OLE1 % Max Inhibition” value is 76.89%. Further, in assay [2], the concentration giving a half-maximal response (EC50) is 11.1 µM and the Emax is 562%.

In the case of `CCOc1ccc(-c2noc(C3CCN(C(=O)CNC(=O)c4ccccc4)CC3)n2)cc1OC` [Compound 155], in assay [1], the half-maximal effective concentration (EC50) worked out at 2.16 µM and the Emax was 865%. Further, on SCD5, half-maximal inhibition (IC50) was put at 33.8 µM and the “SCD5 % Max Inhibition” value is on record as 67.35%. Besides, at SCD1, the IC50 was over 45 µM and the “SCD1 % Max Inhibition” value is 98.25%. Besides, on Ole1, the “OLE1 % Max Inhibition” value amounted to 1.65%. In assay [2], the EC50 was 0.011 µM and the Emax was determined as 556%.

As to `COc1ccc(-c2noc(C3CCN(C(=O)CNC(=O)C4CCCCC4)CC3)n2)cc1OC` [Compound 48], in assay [1], the EC50 is 2.94 µM and the Emax was 874%. Further, on SCD5, the IC50 is over 45 µM and the “SCD5 % Max Inhibition” value was 75.26%. At SCD1, the IC50 was 39.3 µM and the “SCD1 % Max Inhibition” value is recorded as 63.58%. Besides, at Ole1, the half-inhibitory concentration (IC50) was over 45 µM and the “OLE1 % Max Inhibition” value is reported as 8.16%. In addition, in assay [2], the EC50 turned out to be 1.47 µM and the Emax was 615%.

`CCOc1ccc(-c2noc(N3CCC(C(=O)N4CCCC(c5ccccc5)C4)CC3)n2)cc1OC` (stereo not drawn) [compound 100]: the concentration giving a half-maximal response (EC50) in assay [1] is 2.11 µM; in assay [2], 1.19 µM. Moreover, the Emax in assay [1] was 651%; in assay [2] it was 385%. Also, the concentration for half-maximal inhibition (IC50) is over 45 µM against SCD5, 32.8 µM on SCD1 and over 45 µM at Ole1.

Take `COc1ccc(-c2noc(N3CCC(C(=O)N4CCCCC4)CC3)n2)cc1OC` [compound 6]: the EC50 in assay [1] was 15.1 µM; in assay [2], 10.2 µM. Further, the Emax turned out to be 815% in assay [1] and 460% in assay [2]. Further, the values for the IC50 on SCD5, against SCD1 and at Ole1 were 41.1 µM, over 45 µM and 39.1 µM, respectively.

Regarding `COc1cccc(-c2noc(C3CCN(C(=O)CNC(=O)c4ccccc4)CC3)n2)c1` [compound 11], the figures for the Emax in assay [1] and in assay [2] were 600% and 309%, respectively. Moreover, the IC50 on SCD5, at SCD1 and against Ole1 was over 45 µM in each case. Moreover, the half-maximal effective concentration (EC50) in assay [2] was found to be 5.89 µM.

In the case of `COc1ccc(-c2noc(C3CCN(C(=O)[C@H]4CC(=O)N(c5ccc(C)c(C)c5)C4)CC3)n2)cc1` [Compound 64], in assay [1], the half-maximal effective concentration (EC50) was 15.3 µM and the Emax was determined as 330%. Moreover, at SCD5, the half-maximal inhibitory concentration (IC50) was over 45 µM and the “SCD5 % Max Inhibition” value turned out to be 42.05%. Besides, at SCD1, the concentration for half-maximal inhibition (IC50) is over 45 µM and the “SCD1 % Max Inhibition” value came to 32.39%. On Ole1, the IC50 was over 45 µM and the “OLE1 % Max Inhibition” value is 115.95%. Besides, in assay [2], the EC50 is 13.7 µM and the Emax was found to be 228%.
